US20220125898A1, “PAR2 MODULATION AND METHODS THEREOF” (JANSSEN BIOTECH, INC., priority 2019, published 2022)

T1: PAR2(R36A) (Homo sapiens, UniProt P55085, R36A)
T1 construct: expressed in transfected cells; host or cells: HEK293 cells with par1 and par2 knocked out, transient
T1 sequence (P55085 26-397 R36A): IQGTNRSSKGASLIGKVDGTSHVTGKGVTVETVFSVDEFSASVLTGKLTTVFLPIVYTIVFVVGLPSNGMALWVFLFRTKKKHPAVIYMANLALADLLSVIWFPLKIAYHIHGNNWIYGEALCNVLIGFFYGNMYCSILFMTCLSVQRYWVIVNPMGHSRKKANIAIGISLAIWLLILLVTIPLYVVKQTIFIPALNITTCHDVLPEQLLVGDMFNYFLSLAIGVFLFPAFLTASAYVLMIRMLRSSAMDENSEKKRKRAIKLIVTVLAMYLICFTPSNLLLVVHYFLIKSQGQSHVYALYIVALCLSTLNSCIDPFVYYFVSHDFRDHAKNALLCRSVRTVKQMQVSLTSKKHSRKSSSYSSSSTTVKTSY

T2: endogenously expressed PAR2 in HEK293 cells (Homo sapiens, UniProt P55085)
T2 construct: the endogenously expressed PAR2 in HEK293 cells; endogenous in cells; host or cells: wild type HEK293 cells
T2 sequence (P55085 26-397): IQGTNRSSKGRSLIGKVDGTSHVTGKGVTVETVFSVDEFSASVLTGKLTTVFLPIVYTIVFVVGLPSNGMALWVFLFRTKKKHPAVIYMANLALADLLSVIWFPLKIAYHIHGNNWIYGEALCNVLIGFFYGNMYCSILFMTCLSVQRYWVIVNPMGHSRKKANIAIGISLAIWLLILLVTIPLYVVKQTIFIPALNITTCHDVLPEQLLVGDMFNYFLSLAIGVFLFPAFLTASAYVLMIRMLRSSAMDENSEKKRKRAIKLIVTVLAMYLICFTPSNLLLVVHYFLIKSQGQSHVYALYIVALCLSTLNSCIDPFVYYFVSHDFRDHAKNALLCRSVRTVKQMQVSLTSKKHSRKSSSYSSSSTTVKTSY

T3: recombinantly expressed PAR2 (Homo sapiens, UniProt P55085)
T3 construct: was used to amplify the full length PAR2 cDNA coding region; expressed in transfected cells; host or cells: HEK293 cells with par1 and par2 knocked out, transient, pcDNA3.1
T3 sequence (P55085 26-397): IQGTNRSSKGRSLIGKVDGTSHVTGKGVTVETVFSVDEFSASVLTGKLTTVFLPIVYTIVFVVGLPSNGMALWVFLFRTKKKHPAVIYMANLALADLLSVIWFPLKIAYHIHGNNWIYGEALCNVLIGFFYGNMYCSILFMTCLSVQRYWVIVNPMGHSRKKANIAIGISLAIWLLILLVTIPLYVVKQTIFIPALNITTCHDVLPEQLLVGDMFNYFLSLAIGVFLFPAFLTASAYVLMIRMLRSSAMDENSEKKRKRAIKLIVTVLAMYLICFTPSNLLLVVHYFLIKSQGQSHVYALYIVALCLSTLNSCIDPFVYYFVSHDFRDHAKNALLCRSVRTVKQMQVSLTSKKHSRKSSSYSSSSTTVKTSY

T4: PAR2ΔSP(R36A) (Homo sapiens, UniProt P55085, R36A)
T4 construct: expressed in transfected cells; host or cells: HEK293 cells with par1 and par2 knocked out, transient
T4 sequence (P55085 with tags, fused parts or gaps R36A): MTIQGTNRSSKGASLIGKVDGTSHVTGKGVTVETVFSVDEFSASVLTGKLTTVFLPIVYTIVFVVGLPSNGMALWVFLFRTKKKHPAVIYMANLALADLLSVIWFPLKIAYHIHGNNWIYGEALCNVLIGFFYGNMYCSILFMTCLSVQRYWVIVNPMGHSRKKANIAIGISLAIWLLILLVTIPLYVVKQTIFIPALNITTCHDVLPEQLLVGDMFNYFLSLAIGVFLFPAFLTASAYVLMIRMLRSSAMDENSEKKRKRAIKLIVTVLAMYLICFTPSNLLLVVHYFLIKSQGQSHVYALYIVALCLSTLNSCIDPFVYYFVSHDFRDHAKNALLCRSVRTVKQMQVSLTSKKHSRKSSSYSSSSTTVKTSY

T5: PAR2ΔSP (Homo sapiens, UniProt P55085)
T5 construct: expressed in transfected cells; host or cells: HEK293 cells with par1 and par2 knocked out, transient, pcDNA3.1
T5 sequence (P55085 with tags, fused parts or gaps): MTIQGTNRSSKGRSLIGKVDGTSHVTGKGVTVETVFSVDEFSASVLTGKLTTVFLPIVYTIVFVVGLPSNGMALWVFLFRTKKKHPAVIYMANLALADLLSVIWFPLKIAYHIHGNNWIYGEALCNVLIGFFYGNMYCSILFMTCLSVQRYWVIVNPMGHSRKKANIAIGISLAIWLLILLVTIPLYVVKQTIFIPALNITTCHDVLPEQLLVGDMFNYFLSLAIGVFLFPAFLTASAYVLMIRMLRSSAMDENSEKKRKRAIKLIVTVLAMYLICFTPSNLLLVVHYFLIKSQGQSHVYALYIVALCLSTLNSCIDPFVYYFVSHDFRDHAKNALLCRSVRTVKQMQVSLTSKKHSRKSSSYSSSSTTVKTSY

T6: PAR2ΔSPΔL (Homo sapiens, UniProt P55085)
T6 construct: expressed in transfected cells; host or cells: HEK293 cells with par1 and par2 knocked out, transient
T6 sequence (P55085 with tags, fused parts or gaps): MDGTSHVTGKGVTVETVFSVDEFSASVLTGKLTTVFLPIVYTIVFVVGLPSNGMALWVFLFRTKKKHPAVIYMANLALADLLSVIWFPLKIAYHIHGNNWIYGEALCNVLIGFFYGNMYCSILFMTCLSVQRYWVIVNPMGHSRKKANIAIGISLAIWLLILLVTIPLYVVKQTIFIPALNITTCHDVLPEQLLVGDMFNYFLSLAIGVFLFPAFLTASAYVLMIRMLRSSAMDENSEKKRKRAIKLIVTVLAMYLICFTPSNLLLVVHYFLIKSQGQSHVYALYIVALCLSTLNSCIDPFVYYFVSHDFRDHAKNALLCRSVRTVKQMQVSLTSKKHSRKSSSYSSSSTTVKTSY

T7: PAR2 endogenously expressed in HEK293 cells (human, UniProt P55085 37-397)
T7 sequence (looked up): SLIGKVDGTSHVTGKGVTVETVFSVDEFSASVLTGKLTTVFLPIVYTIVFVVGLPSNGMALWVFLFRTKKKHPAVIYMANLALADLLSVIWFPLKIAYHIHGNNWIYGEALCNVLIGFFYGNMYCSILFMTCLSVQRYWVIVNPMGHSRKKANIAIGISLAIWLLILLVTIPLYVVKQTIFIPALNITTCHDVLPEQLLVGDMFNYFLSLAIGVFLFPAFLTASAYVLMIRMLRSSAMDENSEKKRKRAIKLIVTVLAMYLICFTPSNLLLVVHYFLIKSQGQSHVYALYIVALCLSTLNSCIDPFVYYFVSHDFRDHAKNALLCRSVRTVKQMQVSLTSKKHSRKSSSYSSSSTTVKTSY

T8: PAR2 with the signal peptide deleted (PAR2ΔSP) (human, UniProt P55085 37-397)
T8 sequence: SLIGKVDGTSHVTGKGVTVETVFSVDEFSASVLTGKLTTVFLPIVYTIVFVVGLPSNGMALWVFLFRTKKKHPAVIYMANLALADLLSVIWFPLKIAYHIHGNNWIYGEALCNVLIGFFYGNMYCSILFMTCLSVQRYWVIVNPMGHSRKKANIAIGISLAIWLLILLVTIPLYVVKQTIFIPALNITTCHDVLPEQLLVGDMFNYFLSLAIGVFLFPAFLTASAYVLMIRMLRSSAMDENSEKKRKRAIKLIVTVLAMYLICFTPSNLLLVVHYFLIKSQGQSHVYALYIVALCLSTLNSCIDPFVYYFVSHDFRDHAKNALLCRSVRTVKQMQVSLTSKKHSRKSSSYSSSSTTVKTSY

T9: Human PAR2 wild type, recombinantly expressed in HEK293 cells with par1 and par2 knocked-out (human, UniProt P55085 37-397)
T9 sequence: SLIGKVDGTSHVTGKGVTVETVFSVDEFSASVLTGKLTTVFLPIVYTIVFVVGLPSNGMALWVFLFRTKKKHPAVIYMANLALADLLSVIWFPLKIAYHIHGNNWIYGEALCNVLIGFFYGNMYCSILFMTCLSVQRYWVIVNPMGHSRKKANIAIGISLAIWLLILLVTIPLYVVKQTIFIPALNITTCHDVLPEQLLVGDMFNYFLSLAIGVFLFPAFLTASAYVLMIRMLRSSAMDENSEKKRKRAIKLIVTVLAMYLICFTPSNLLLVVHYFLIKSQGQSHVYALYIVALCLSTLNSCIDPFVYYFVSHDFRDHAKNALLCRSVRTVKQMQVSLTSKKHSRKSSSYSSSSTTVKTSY


Experiments:
PAR2(R36A) = target: T1, PAR2(R36A); experiment: FLIPR intracellular Ca2+ mobilization, full length PAR2 with Arg36Ala mutation; type: cell-based
Description: (§1) FLIPR-Tetra (Molecular Device, San Jose, Calif.) was used to monitor intracellular Ca^2+ mobilization in HEK293 cells, HEK293 cells with PAR1 and PAR2 knocked-out, and cells transiently transfected with various PAR2 expression constructs. Cells were grown in 96-well polyD-lysine coated black FLIPR plates (Corning) in DMEM supplemented with 10% FCS, 1 mM pyruvate, 20 mM HEPES, at 37° C. with 5% CO2. For transient transfection, cells were grown in 96-well polyD-lysine coated black FLIPR plates and transfected using FuGENE HD (Promega, Madison, Wis.) as the transfection reagent according to the manufacturer's instructions. For samples treated with protease inhibitors, protease cocktail was added to cell culture one day after transfection and incubated overnight. Two days after transfection, cell culture media were removed, and cells were washed using HMS buffer plus 20 mM HEPES. Ca^2+ dye (Flura 3) diluted in HMS buffer plus 20 mM HEPES was used to incubate cells at RT for 40 minutes to allow Ca^2+ to enter cells. […] The untransfected cells were used as negative controls.

[1] = target: T2, endogenously expressed PAR2 in HEK293 cells; experiment: FLIPR intracellular Ca2+ mobilization, wild type HEK293 cells; type: cell-based; conditions: endogenous PAR2, HEK293 cells
Description: (§2) FLIPR-Tetra (Molecular Device, San Jose, Calif.) was used to monitor intracellular Ca^2+ mobilization in HEK293 cells, HEK293 cells with PAR1 and PAR2 knocked-out, and cells transiently transfected with various PAR2 expression constructs. Cells were grown in 96-well polyD-lysine coated black FLIPR plates (Corning) in DMEM supplemented with 10% FCS, 1 mM pyruvate, 20 mM HEPES, at 37° C. with 5% CO2. For transient transfection, cells were grown in 96-well polyD-lysine coated black FLIPR plates and transfected using FuGENE HD (Promega, Madison, Wis.) as the transfection reagent according to the manufacturer's instructions. For samples treated with protease inhibitors, protease cocktail was added to cell culture one day after transfection and incubated overnight. Two days after transfection, cell culture media were removed, and cells were washed using HMS buffer plus 20 mM HEPES. Ca^2+ dye (Flura 3) diluted in HMS buffer plus 20 mM HEPES was used to incubate cells at RT for 40 minutes to allow Ca^2+ to enter cells. Intracellular Ca^2+ mobilization stimulated by various concentrations of ligands (trypsin, or peptide ligand) was monitored by FLIPR-Tetra as described (Liu et al., Mol. Pharmacol. 88:911-25 (2015)). The untransfected cells were used as negative controls.

[2] = test system: HEK293 cells with par1 and par2 knocked-out; experiment: FLIPR characterization of par1 and par2 knock-out HEK293 cells; type: cell-based, human
Excerpt: A PAR1, PAR2 knock-out HEK293 cell line was created by Applied StemCells (Milpitas, Calif.) using a CRISPR/Cas9 approach. Briefly, the coding region (nucleotide 374-643) of PAR1, which encodes the protein region transmembrane region 2 (TM2) to transmembrane region 3 (TM3) of PAR1, was deleted. Similarly, the coding region (281-627) of PAR2, which encodes the protein region TM2 to TM3 of PAR2, was deleted. Single cell clones were isolated. PCR analysis of the genomic DNA followed by DNA sequencing was used to confirm the deletion of the DNA fragments.
as §2, with “For samples treated with protease inhibitors, protease cocktail was added to cell culture one day after transfection and incubated overnight. Two days after transfection, cell culture media were removed, and cells were washed using HMS buffer plus 20 mM HEPES. Ca^2+ dye (Flura 3) diluted in HMS buffer plus 20 mM HEPES was used to incubate cells at RT for 40 minutes to allow Ca^2+ to enter cells.” left out, “The untransfected cells were used as negative controls.” left out

[3] = target: T3, recombinantly expressed PAR2; experiment: FLIPR intracellular Ca2+ mobilization, recombinant wild type PAR2 transiently expressed in par1/par2 knock-out HEK293; type: cell-based
Description: as §2

PAR2ΔSP(R36A) = target: T4, PAR2ΔSP(R36A); experiment: FLIPR intracellular Ca2+ mobilization, signal peptide-less PAR2 with Arg36Ala mutation; type: cell-based
Description: as §1

PAR2ΔSP = target: T5, PAR2ΔSP; experiment: FLIPR intracellular Ca2+ mobilization, PAR2 without signal peptide in par1/par2 knock-out HEK293; type: cell-based; conditions: PAR2 without its signal peptide
Description: as §2, with “controls. […]” for “controls.”

PAR2ΔSPΔL = target: T6, PAR2ΔSPΔL; experiment: FLIPR intracellular Ca2+ mobilization, PAR2 without signal peptide and tethered ligand; type: cell-based
Description: as §1

[4] = target: T7, PAR2 endogenously expressed in HEK293 …; experiment: cell-based or functional assay
[5] = target: T8, PAR2 with the signal peptide deleted …; experiment: cell-based or functional assay
[6] = target: T9, Human PAR2 wild type, recombinantly …; experiment: cell-based or functional assay

Molecule	receptor response to ligand stimulation in FLIPR assay (PAR2(R36A))	EC50 [1] [nM]	response of knock-out cells to ligand [2]	EC50 [3] [nM]	receptor response to ligand stimulation in FLIPR assay (PAR2ΔSP(R36A))	EC50 (PAR2ΔSP) [nM]	receptor activation in FLIPR assay (PAR2ΔSPΔL)	EC50, FLIPR intracellular Ca2+ mobilization [4] [nM]	EC50, FLIPR intracellular Ca2+ mobilization [5] [nM]	EC50, FLIPR intracellular Ca2+ mobilization, cells treated with protease inhibitor cocktail [5] [nM]	EC50, FLIPR intracellular Ca2+ mobilization [6] [nM]
trypsin	very poorly	10	lack of response	1.5	blocked	50	not activated				
SLIGKV [PAR2 agonist peptide ligand, SLIGKV]								1500	5800	700	50
